Results: ChEMBL document CHEMBL1909046, “DrugMatrix in vitro pharmacology data”

What was measured:
[1] = DRUGMATRIX: Calcium Channel Type L, Dihydropyridine radioligand binding (ligand: [3H] Nitrendipine); format: cell membranes, Rattus norvegicus, Wistar, Cerebral cortex, Membrane; conditions: Not Active = under 50% inhibition at 10 µM
Thromboxane-A synthase = target: T1, Thromboxane-A synthase (Homo sapiens, UniProt P24557); assay: biochemical; format: tissue-based, Platelet; conditions: platelet;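 also: enzyme inhibition assay with PGH2 supplied as substrate; in other assays of this panel Not Active means under 50% inhibition at 10 µM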
T1 sequence (P24557 whole entry): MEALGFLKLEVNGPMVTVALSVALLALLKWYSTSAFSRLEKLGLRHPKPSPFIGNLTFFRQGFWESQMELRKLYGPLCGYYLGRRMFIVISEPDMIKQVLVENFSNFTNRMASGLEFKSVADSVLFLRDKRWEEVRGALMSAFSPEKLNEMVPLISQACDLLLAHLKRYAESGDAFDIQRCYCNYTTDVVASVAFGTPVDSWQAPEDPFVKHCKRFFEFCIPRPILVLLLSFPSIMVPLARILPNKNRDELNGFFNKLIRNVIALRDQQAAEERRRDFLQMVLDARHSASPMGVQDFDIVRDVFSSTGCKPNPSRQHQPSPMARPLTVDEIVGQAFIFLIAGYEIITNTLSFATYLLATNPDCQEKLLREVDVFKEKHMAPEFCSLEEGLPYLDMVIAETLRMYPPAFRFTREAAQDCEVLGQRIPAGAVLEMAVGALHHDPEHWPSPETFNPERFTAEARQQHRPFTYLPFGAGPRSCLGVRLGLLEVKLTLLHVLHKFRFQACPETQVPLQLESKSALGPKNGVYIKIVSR

[2] = target: T2, Cholecystokinin receptor type A (Homo sapiens, UniProt P32238); format: cell membranes, Membrane; conditions: 1321-n1; also: in other assays of this panel Not Active means under 50% inhibition at 10 µM
T2 sequence (P32238 whole entry): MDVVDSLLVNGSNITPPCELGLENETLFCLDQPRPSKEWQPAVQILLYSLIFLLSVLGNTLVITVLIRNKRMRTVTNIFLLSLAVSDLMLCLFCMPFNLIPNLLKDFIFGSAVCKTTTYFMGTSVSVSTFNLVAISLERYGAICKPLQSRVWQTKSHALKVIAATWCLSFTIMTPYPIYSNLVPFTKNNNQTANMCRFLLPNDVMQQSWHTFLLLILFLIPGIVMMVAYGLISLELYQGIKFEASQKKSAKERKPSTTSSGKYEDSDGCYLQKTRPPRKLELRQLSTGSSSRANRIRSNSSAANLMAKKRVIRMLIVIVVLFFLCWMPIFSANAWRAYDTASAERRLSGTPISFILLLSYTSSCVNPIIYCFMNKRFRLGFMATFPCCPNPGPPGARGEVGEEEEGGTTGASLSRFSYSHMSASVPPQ

D(1A) dopamine receptor = D(1A) dopamine receptor (Homo sapiens, UniProt P21728); assay: DRUGMATRIX: Dopamine D1 radioligand binding (ligand: [3H] SCH-23390); format: cell membranes, CHO, Membrane; conditions: cho; Not Active = under 50% inhibition at 10 µM
Sequence of D(1A) dopamine receptor (P21728 whole entry): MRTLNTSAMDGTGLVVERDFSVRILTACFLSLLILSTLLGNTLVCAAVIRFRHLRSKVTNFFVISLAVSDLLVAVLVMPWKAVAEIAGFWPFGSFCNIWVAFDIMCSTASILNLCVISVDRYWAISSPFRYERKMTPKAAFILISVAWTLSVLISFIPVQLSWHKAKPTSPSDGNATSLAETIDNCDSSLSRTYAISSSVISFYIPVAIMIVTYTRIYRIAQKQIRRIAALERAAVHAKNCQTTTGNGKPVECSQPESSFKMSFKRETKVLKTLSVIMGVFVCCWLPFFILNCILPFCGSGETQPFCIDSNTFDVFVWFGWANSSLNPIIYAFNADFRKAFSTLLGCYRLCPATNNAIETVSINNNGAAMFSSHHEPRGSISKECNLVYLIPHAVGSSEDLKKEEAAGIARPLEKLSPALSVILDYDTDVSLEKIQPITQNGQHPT

[3] = DRUGMATRIX: Platelet-Derived Growth Factor (PDGF) radioligand binding (ligand: [125I] PDGF); format: cell-based; conditions: nih3t3; Not Active = under 50% inhibition at 10 µM
Progesterone receptor = target: T3, Progesterone receptor (Bos taurus, UniProt Q690N0); assay: DRUGMATRIX: Progesterone radioligand binding (ligand: [3H] R-5020); format: tissue-based, Uterus; conditions: Not Active = under 50% inhibition at 10 µM
T3 sequence (Q690N0 whole entry): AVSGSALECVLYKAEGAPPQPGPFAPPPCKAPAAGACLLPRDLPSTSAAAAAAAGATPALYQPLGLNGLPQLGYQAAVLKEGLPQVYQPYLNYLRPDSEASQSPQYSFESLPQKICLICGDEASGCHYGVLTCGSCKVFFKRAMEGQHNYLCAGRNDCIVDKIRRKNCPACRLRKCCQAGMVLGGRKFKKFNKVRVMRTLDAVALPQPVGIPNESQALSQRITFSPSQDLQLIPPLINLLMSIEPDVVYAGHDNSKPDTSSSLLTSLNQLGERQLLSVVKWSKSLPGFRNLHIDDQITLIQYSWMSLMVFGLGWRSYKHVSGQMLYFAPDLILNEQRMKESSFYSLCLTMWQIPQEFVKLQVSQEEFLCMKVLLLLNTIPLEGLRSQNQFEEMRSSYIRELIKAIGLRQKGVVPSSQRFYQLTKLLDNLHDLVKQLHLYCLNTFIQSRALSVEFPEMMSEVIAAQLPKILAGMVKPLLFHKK

[4] = DRUGMATRIX: Purinergic P2X radioligand binding (ligand: [3H] alpha, beta-Methylene-ATP); format: cell membranes, Oryctolagus cuniculus, New Zealand albino, Urinary bladder, Membrane; conditions: Not Active = under 50% inhibition at 10 µM

C#CCN(C)[C@H](C)Cc1ccccc1 [SELEGILINE]
IC50 [1]: Not Active | Ki [1]: Not Active | IC50 (Thromboxane-A synthase): Not Active | IC50 [2]: Not Active | IC50 (D(1A) dopamine receptor): Not Active | IC50 [3]: Not Active | Ki [3]: Not Active | IC50 (Progesterone receptor): Not Active | IC50 [4]: Not Active | Ki [4]: Not Active

COc1cc(N)nc2[nH]c(-c3ccc(F)cc3)c(-c3ccncc3)c12
IC50 [1]: Not Active | Ki [1]: Not Active | IC50 (Thromboxane-A synthase): Not Active | IC50 [2]: Not Active | IC50 (D(1A) dopamine receptor): Not Active | IC50 [3]: Not Active | Ki [3]: Not Active | IC50 (Progesterone receptor): Not Active | IC50 [4]: Not Active | Ki [4]: Not Active

THIMEROSAL
IC50 [1]: Not Active | Ki [1]: Not Active | IC50 (Thromboxane-A synthase): Not Active | Ki (Thromboxane-A synthase): Not Active | IC50 [2]: Not Active | Ki [2]: Not Active | IC50 (D(1A) dopamine receptor): Not Active | Ki (D(1A) dopamine receptor): Not Active | IC50 [3]: Not Active | Ki [3]: Not Active | IC50 (Progesterone receptor): Not Active | Ki (Progesterone receptor): Not Active | IC50 [4]: Not Active | Ki [4]: Not Active

CNS(=O)(=O)Cc1ccc2[nH]cc(CCN(C)C)c2c1
IC50 [1]: Not Active | Ki [1]: Not Active | IC50 (Thromboxane-A synthase): Not Active | IC50 [2]: Not Active | IC50 (D(1A) dopamine receptor): Not Active | IC50 [3]: Not Active | Ki [3]: Not Active | IC50 (Progesterone receptor): Not Active | IC50 [4]: Not Active | Ki [4]: Not Active

C[C@]12CC[C@H]3[C@@H](CCC4=CC(=O)CC[C@@]43C)[C@@H]1CC[C@@H]2O [TESTOSTERONE]
IC50 [1]: Not Active | Ki [1]: Not Active | IC50 (Thromboxane-A synthase): Not Active | IC50 [2]: Not Active | IC50 (D(1A) dopamine receptor): Not Active | IC50 [3]: Not Active | Ki [3]: Not Active | IC50 (Progesterone receptor; read-out: IC50): 1930 nM | Ki (Progesterone receptor; read-out: Ki): 252 nM | IC50 [4]: Not Active | Ki [4]: Not Active

C[C@@H]1C[C@H]2[C@@H]3CCC4=CC(=O)C=C[C@]4(C)C3=CC[C@]2(C)[C@H]1C(=O)CN1CCN(c2cc(N3CCCC3)nc(N3CCCC3)n2)CC1 [TIRILAZAD]
IC50 [1]: Not Active | Ki [1]: Not Active | IC50 (Thromboxane-A synthase): Not Active | IC50 [2]: Not Active | IC50 (D(1A) dopamine receptor): Not Active | IC50 [3]: Not Active | Ki [3]: Not Active | IC50 (Progesterone receptor): Not Active | IC50 [4]: Not Active | Ki [4]: Not Active

NC[C@H]1O[C@H](O[C@H]2[C@H](O)[C@@H](O[C@H]3O[C@H](CO)[C@@H](O)[C@H](N)[C@H]3O)[C@H](N)C[C@@H]2N)[C@H](N)C[C@@H]1O [TOBRAMYCIN]
IC50 [1]: Not Active | Ki [1]: Not Active | IC50 (Thromboxane-A synthase): Not Active | IC50 [2]: Not Active | IC50 (D(1A) dopamine receptor): Not Active | IC50 [3]: Not Active | Ki [3]: Not Active | IC50 (Progesterone receptor): Not Active | IC50 [4]: Not Active | Ki [4]: Not Active

CN[C@@H]1[C@H](O)[C@H](NC)[C@H]2O[C@@]3(O)C(=O)C[C@@H](C)O[C@H]3O[C@@H]2[C@H]1O [SPECTINOMYCIN]
IC50 [1]: Not Active | Ki [1]: Not Active | IC50 (Thromboxane-A synthase): Not Active | IC50 [2]: Not Active | IC50 (D(1A) dopamine receptor): Not Active | IC50 [3]: Not Active | Ki [3]: Not Active | IC50 (Progesterone receptor): Not Active | IC50 [4]: Not Active | Ki [4]: Not Active

CO[C@H]1C[C@@H]2CC[C@@H](C)[C@@](O)(O2)C(=O)C(=O)N2CCCC[C@H]2C(=O)O[C@H]([C@H](C)C[C@@H]2CC[C@@H](O)[C@H](OC)C2)CC(=O)[C@H](C)/C=C(\C)[C@@H](O)[C@@H](OC)C(=O)[C@H](C)C[C@H](C)/C=C/C=C/C=C/1C [SIROLIMUS]
IC50 [1]: Not Active | Ki [1]: Not Active | IC50 (Thromboxane-A synthase): Not Active | IC50 [2]: Not Active | IC50 (D(1A) dopamine receptor): Not Active | IC50 [3]: Not Active | Ki [3]: Not Active | IC50 (Progesterone receptor): Not Active | IC50 [4]: Not Active | Ki [4]: Not Active

O=P(O)(O)C(O)(Cc1cccnc1)P(=O)(O)O [RISEDRONIC ACID]
IC50 [1]: Not Active | Ki [1]: Not Active | IC50 (Thromboxane-A synthase): Not Active | IC50 [2]: Not Active | IC50 (D(1A) dopamine receptor): Not Active | IC50 [3]: Not Active | Ki [3]: Not Active | IC50 (Progesterone receptor): Not Active | IC50 [4]: Not Active | Ki [4]: Not Active

COc1ccc(CN2CCNCC2)c(OC)c1OC [TRIMETAZIDINE]
IC50 [1]: Not Active | Ki [1]: Not Active | IC50 (Thromboxane-A synthase): Not Active | IC50 [2]: Not Active | IC50 (D(1A) dopamine receptor): Not Active | IC50 [3]: Not Active | Ki [3]: Not Active | IC50 (Progesterone receptor): Not Active | IC50 [4]: Not Active | Ki [4]: Not Active
